Results on 22 molecules are retold here after ChEMBL document CHEMBL1221263, “Preliminary studies of 3,4-dichloroaniline amides as antiparasitic agents: structure-activity analysis of a compound library in vitro against Trichomonas vaginalis” (Bioorg Med Chem Lett, 2010).

The structures appear in SMILES notation.

In assay [1] the test system is Trichomonas vaginalis. In words: Antiparasitic activity against Trichomonas vaginalis T1 at 100 uM after 24 hrs by hemocytometric analysis. The class given is functional. As to conditions: T1, 24 h.
Assay [2] deals with Trichomonas vaginalis. In words: Antiparasitic activity against Trichomonas vaginalis G3 at 100 uM after 24 hrs by hemocytometric analysis. In kind it is functional. As to conditions: G3, 24 h.
Assay [3] relates to Trichomonas vaginalis. In words: Antiparasitic activity against Trichomonas vaginalis T1 after 24 hrs by hemocytometric analysis. The class given is functional, organism-based. As to conditions: T1, 24 h.
Assay [4] has as its system Trichomonas vaginalis. Description: Antiparasitic activity against Trichomonas vaginalis G3 after 24 hrs by hemocytometric analysis. In kind it is functional. As to conditions: G3, 24 h.
Assay [5] in a line: Cytotoxicity against human CFU-GM cells. In kind it is cell-based.
Assay [6] can be described thus: Cytotoxicity against human erythroid progenitor cells. In kind it is cell-based.

One may read the inhibition as the change of the read-out against control, counted positive when it falls. Read a high inhibition as strong suppression. In the case of `O=C(Nc1ccc(Cl)c(Cl)c1)c1ccc(Cl)cc1`, the inhibition at 100 µM stood at 46% with Trichomonas vaginalis [1] and 28% in the assay with Trichomonas vaginalis [2].

On to `O=Cc1ccc(-c2ccc(Cl)cc2[N+](=O)[O-])o1`, for which the inhibition at 100 µM stood at 59% with Trichomonas vaginalis [1] and 46% in the assay on Trichomonas vaginalis [2].

For `COc1ccc(C(=O)Nc2ccc(Cl)c(Cl)c2)cc1`, the inhibition at 100 µM with Trichomonas vaginalis [1] was 22%; in the assay with Trichomonas vaginalis [2] it was 13%.

Consider `O=C(Nc1ccc(Cl)c(Cl)c1)c1cccc2ccccc12`, for which the figures for the inhibition at 100 µM with Trichomonas vaginalis [1] and in the assay on Trichomonas vaginalis [2] were 49% and 37%, respectively.

With `COc1ccc(NC(=O)C2CCCCC2)cc1OC`, the values for the inhibition at 100 µM with Trichomonas vaginalis [1] and in the assay on Trichomonas vaginalis [2] were 34% and 10%, respectively.

On to `COc1ccc(-c2ccccc2)cc1NC(=O)C1CCCCC1`, for which the inhibition at 100 µM with Trichomonas vaginalis [1] was determined as 36%; in the assay on Trichomonas vaginalis [2], 28%.

For the molecule `O=C(Nc1ccc(Cl)c(Cl)c1)C12CC3CC(CC(C3)C1)C2`, the results for the inhibition at 100 µM in the assay on Trichomonas vaginalis [1] and in the assay with Trichomonas vaginalis [2] were 0% and 19%, respectively.

`O=C(Nc1ccc(Cl)c(Cl)c1)c1cccc([N+](=O)[O-])c1`: the inhibition at 100 µM in the assay on Trichomonas vaginalis [1] turned out to be 22%; in the assay with Trichomonas vaginalis [2], 51%.

For the molecule `O=C(Nc1ccc(O)cc1)C1CCCCC1`, the inhibition at 100 µM in the assay on Trichomonas vaginalis [1] amounted to 25%; in the assay with Trichomonas vaginalis [2], 39%.

For the molecule `O=C(Nc1ccc(Cl)c(Cl)c1)c1ccc([N+](=O)[O-])cc1`, the inhibition at 100 µM in the assay with Trichomonas vaginalis [1] came out at 44%; in the assay on Trichomonas vaginalis [2], 40%.

Broadly, the IC50 is the concentration that gives 50% inhibition. Read a high IC50 as lower potency. With `O=C(Nc1ccc(Cl)c(Cl)c1)c1cccc(C(F)(F)F)c1`, the IC50 in the assay on Trichomonas vaginalis [3] stood at 77 µM; with Trichomonas vaginalis [4] it was 90 µM. The inhibition at 100 µM in the assay on Trichomonas vaginalis [1] came to 69%; with Trichomonas vaginalis [2], 66%.

Turning to `O=C(Nc1ccc(Cl)c(Cl)c1)c1cccc(F)c1`, the inhibition at 100 µM with Trichomonas vaginalis [1] came out at 29%; in the assay with Trichomonas vaginalis [2] it was 61%.

Regarding `O=C(Nc1ccc(Cl)c(Cl)c1)c1cccc(Cl)c1`, the inhibition at 100 µM in the assay on Trichomonas vaginalis [1] was found to be 19%; in the assay with Trichomonas vaginalis [2], 70%.

For the molecule `O=C(Nc1ccc(Cl)c(Cl)c1)c1ccc(Cl)cc1Cl`, the inhibition at 100 µM came to 38% with Trichomonas vaginalis [1] and 46% in the assay on Trichomonas vaginalis [2].

Regarding `O=C(Nc1ccc(Cl)c(Cl)c1)c1ccc(Cl)c(Cl)c1`, the inhibition at 100 µM in the assay on Trichomonas vaginalis [1] amounted to 29%; with Trichomonas vaginalis [2] it was 55%.

Take `O=C(Nc1ccc(Cl)c(Cl)c1)C1CCCCC1`: the inhibition at 100 µM in the assay on Trichomonas vaginalis [1] came out at 62%; with Trichomonas vaginalis [2] it was 30%.

Regarding `O=C(Nc1ccc(Cl)c(Cl)c1)c1ccc(-c2ccccc2)cc1`, the inhibition at 100 µM with Trichomonas vaginalis [1] amounted to 64%; with Trichomonas vaginalis [2] it was 24%.

With `CC(=O)Nc1ccc(O)cc1` [ACETAMINOPHEN], the figures for the inhibition at 100 µM with Trichomonas vaginalis [1] and in the assay on Trichomonas vaginalis [2] were 17% and 14%, respectively.

As for `O=C1C(Cl)=C(Cl)C(=O)C(Cl)=C1Cl` [CHLORANIL], the inhibition at 100 µM with Trichomonas vaginalis [1] was 12%; in the assay on Trichomonas vaginalis [2] it was 40%.

In the case of `O=C1C=CC(=O)c2c(O)cccc21` [JUGLONE], the results for the inhibition at 100 µM with Trichomonas vaginalis [1] and in the assay on Trichomonas vaginalis [2] were 39% and 49%, respectively.

Consider `Cc1ncc([N+](=O)[O-])n1CCO` [METRONIDAZOLE], for which the IC50 in the assay on Trichomonas vaginalis [3] was determined as 0.72 µM; in the assay with Trichomonas vaginalis [4] it was 0.77 µM.

As to `CCC(=O)Nc1ccc(Cl)c(Cl)c1` [PROPANIL], the 50% inhibitory concentration (IC50) in assay [5] was above 500 µM; in assay [6] it was 305 µM; with Trichomonas vaginalis [3], 120 µM. The inhibition at 100 µM in the assay on Trichomonas vaginalis [1] stood at 29%; with Trichomonas vaginalis [2], 20%.
